{
  "source": "patent US8846330B2",
  "about": "“Methods and kits for the diagnosis of RyR1-related diseases” (The Henry M. Jackson Foundation for the Advancement of …, priority 2008, dated 2014)",
  "key": {"lymphocyte cells [1]": {"test_system": "lymphocyte cells", "assay": "4CmC-induced adenosine/inosine in human peripheral blood lymphocytes, HPLC (Example 1)", "assay_type": "cell-based", "settings": "for 4CmC response (adenosine plus inosine) in MHS group relative to MHN or normal groups: EHNA 0.1 mM", "procedure": "FIG. 2 is a dose-response curve for 4-chloro-m-cresol (4CmC)-induced intracellular adenosine plus inosine in lymphocyte cells from malignant hyperthermia susceptible (MHS, n=11), not-susceptible (MHN, n=9), and normal (n=7) subjects. Lymphocyte cells were treated with 4CmC in the presence of an inhibitor of adenosine deaminase (EHNA, 0.1 mM). After purification, aliquot was analyzed for adenosine and inosine content using HPLC. Adenosine plus inosine values in the absence of 4CmC are plotted against X=0.02 mM to allow logarithmic display of the entire dose response curve. Adenosine plus inosine levels were normalized to reflect per 1 million cells. 4CmC responses at 1, 2, and 5 mM on MHS groups are about 4, 4, and 6 fold higher than the corresponding values in MI-1N or normal groups with values of 6×10^−5, 8×10^−5, and […], respectively. There were no overlaps between the MHS group and the MHN or normal groups.\nLymphocyte cells from MHS (n=11), MHN (n=9) and normal (n=7) subjects were suspended in normal HBSS plus 0.1% BSA and treated with adenosine deaminase inhibitor (EHNA, 0.1 mM). After 10 minutes of incubation at 37° C., cells were treated with HBSS, with and without the RyR1 agonist 4CmC (5 mM) and incubated at 37° C. for an additional 45 minutes. After termination and purification of the samples, aliquots (50 μl) were assayed in duplicate for adenosine and inosine content using HPLC. Concentrations are normalized to per 1 million cells. The sum of the adenosine plus inosine level is about 6-fold higher than corresponding values in normal and MHN cells.\nPilot studies were conducted using blood samples from human subjects in the following groups: Group 1: MHS subjects with positive CHCT and/or having a known MH associated mutation (n=11); Group 2: non-MH susceptible with negative CHCT results (MHN) (n=9), and Group 3: normal subjects who had not undergone CHCT and had no family history of MH (n=7).\nBriefly, venous blood samples (20 ml) were drawn from patients using heparinized blood collection tubes. Peripheral blood lymphocyte cells were isolated from whole blood by the Ficoll-Hypaque centrifugation technique. Briefly, diluted anti-coagulated blood is layered over Ficoll-Hypaque and centrifuged. Mononuclear cells consisting of lymphocytes and some monocytes are recovered at the interface. The cells were washed with the Flanks' balanced salt solution (HBSS) buffer, re-suspended in the HBSS buffer, and treated with different concentration of 4CmC at 37° C. in the presence and/or absence of inhibitor of adenosine deaminase erythro-9-(2-hydroxy-3-nonyl)adenine (EHNA) for about 30 minutes. The cells were then purified by adding an equal volume of 6% HClO4 and centrifuged at 6000 rpm for 10 minutes. Aliquots of the supernatant were analyzed for adenosine and inosine content with HPLC using a Waters Separation Module (Model 2695) equipped with Waters Photodiode Array Detector and Empower software."}, "lymphocyte cells [2]": {"test_system": "lymphocyte cells", "assay": "4CmC-induced adenosine plus inosine in cultured swine lymphocytes (Example 2)", "assay_type": "cell-based", "settings": "for adenosine plus inosine level upon stimulation with 4CmC, mean±SEM: 5 mM 4CmC", "procedure": "Lymphocyte cells were isolated from whole arterial blood sample (40 ml) obtained from homozygous recessive MHS (n=5) and normal (n=3) swine by the Ficoll-Hypaque centrifugation technique. Lymphocyte cells were then cultured in RPMI-1640 media supplemented with 10% fetal bovine serum plus 100 units/liter penicillin at 37° C. under 5% CO2 for 2 to 3 weeks. After cell culture period, cell's (5−15×10^4 cells) were suspended in Hanks' balanced salt solution (HBSS)+1% bovine serum albumin and treated with specific RyR1 agonist 4-chloro-m-cresol (4CmC, 5 mM) at 37° C. in the presence and absence of inhibitor of adenosine deaminase erythro-9-(2-hydroxy-3-nonyl) adenine (EHNA, 0.1 mM) for 30 minutes. After purification using 12% HClO4 followed by centrifugation (10 minutes, 4000 RPM), aliquot of sample (50 μl) was assayed for adenosine and inosine content using high performance liquid chromatography (HPLC). Data are normalized to per 1 million cells, compared using one way ANOVA, and presented as mean±SEM. P<0.05 considered significant."}},
  "note": "Where “and” joins values, the source holds several entries; their conditions need not be identical. Equal values may be shown once.",
  "data": [
    {"smiles": "Cc1cc(O)ccc1Cl", "note": "[4CmC, 4-chloro-m-cresol]", "values": [
      {"measurement": "4CmC response (adenosine plus inosine) in MHS group relative to MHN or normal groups", "setting": "lymphocyte cells [1]; 1 mM 4CmC", "value": "about 4 fold"},
      {"measurement": "4CmC response (adenosine plus inosine) in MHS group relative to MHN or normal groups", "setting": "lymphocyte cells [1]; 2 mM 4CmC", "value": "about 4 fold"},
      {"measurement": "stimulation of adenosine plus inosine formation in control and MHN samples", "setting": "lymphocyte cells [1]; 5 mM 4CmC (maximum effective dose)", "value": "did not, or minimally stimulated"},
      {"measurement": "stimulation of nucleosides formation by 4CmC in MHS samples", "setting": "lymphocyte cells [1]; 5 mM 4CmC, FIG. 3", "value": "~6", "unit": "fold"},
      {"measurement": "adenosine plus inosine level after 4CmC treatment, mean±SEM", "setting": "lymphocyte cells [1]; 5 mM 4CmC, MHN group (n=9)", "value": "5.4 ± 0.6", "unit": "µM"},
      {"measurement": "adenosine plus inosine level after 4CmC treatment, mean±SEM", "setting": "lymphocyte cells [1]; 5 mM 4CmC, MHS group (n=11)", "value": "35.6 ± 3.1", "unit": "µM"},
      {"measurement": "adenosine plus inosine level after 4CmC treatment, mean±SEM", "setting": "lymphocyte cells [1]; 5 mM 4CmC, normal group (n=7)", "value": "5.6 ± 1", "unit": "µM"},
      {"measurement": "[Adenosine] μM Post 5 mM 4CmC", "setting": "lymphocyte cells [1]; lymphocytes of single normal subjects, 5 mM 4CmC", "value": "0.220 µM and 0.144 µM and 0.246 µM and 0.154 µM and 0.276 µM and 0.177 µM and 0.268 µM"},
      {"measurement": "4CmC concentration at which inosine release reaches saturation", "setting": "lymphocyte cells [1]; without EHNA", "value": "about 5 mM"},
      {"measurement": "4CmC concentrations that stimulate inosine release dose-dependently", "setting": "lymphocyte cells [1]; without EHNA", "value": "above 1 mM"},
      {"measurement": "effect of 4CmC on adenosine formation", "setting": "lymphocyte cells [1]; without adenosine deaminase inhibitor", "value": "not affected"},
      {"measurement": "adenosine plus inosine level upon stimulation with 4CmC, mean±SEM", "setting": "lymphocyte cells [2]; MHS swine (n=5)", "value": "8.06 ± 0.9", "unit": "µM"},
      {"measurement": "adenosine plus inosine level upon stimulation with 4CmC, mean±SEM", "setting": "lymphocyte cells [2]; normal swine (n=3)", "value": "1.16 ± 0.3", "unit": "µM"},
      {"measurement": "increase of nucleoside production on 4CmC stimulation", "setting": "lymphocyte cells [2]; lymphocytes from MHS swine", "value": "nine-fold increase"},
      {"measurement": "effect of 4CmC stimulation on nucleoside (adenosine plus inosine) production", "setting": "lymphocyte cells [2]; lymphocytes from normal swine", "value": "minimal, if any, effect"}
    ]}
  ]
}
